The NIST ThermoML archive (doi:10.1016/j.jct.2015.09.024)
± gives the expanded uncertainty stated by the source.

Details: Liquid, ATR infrared spectroscopy

vapor or sublimation pressure (295.45 K): 6020 ± 490 kPa | vapor or sublimation pressure (297.05 K): 6240 ± 500 kPa | vapor or sublimation pressure (299.05 K): 6520 ± 530 kPa | vapor or sublimation pressure (302.65 K): 7090 ± 570 kPa | vapor or sublimation pressure (303.25 K): 7180 ± 580 kPa
SMILES: O=C=O [carbon dioxide]
